Laboratory results from patent publication US8420851B2, “Selective TR-β 1 agonist” (Cadila Healthcare Limited, priority 2006, dated 2013).

Experiments:
TR-α = target: T1, TR-α (Homo sapiens, UniProt P10827); assay: In vitro TR-α activity (in-house protocol); assay type: cell-based
T1 sequence (P10827 1-410 isoform P10827-2): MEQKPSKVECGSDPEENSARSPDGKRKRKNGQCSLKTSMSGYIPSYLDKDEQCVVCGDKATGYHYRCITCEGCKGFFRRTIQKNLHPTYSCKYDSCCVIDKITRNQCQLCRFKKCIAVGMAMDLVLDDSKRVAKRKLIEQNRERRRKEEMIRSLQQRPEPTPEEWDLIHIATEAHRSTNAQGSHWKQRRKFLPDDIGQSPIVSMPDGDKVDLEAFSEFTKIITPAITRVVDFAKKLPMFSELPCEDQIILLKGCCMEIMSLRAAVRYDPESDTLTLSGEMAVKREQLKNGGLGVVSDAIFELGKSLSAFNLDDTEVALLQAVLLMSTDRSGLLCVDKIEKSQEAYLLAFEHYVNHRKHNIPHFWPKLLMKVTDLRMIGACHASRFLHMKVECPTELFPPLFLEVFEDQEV
Experimental: (§1) Invitro TR-α & TR-β activities were determined as per in-house protocols and the results of representative compounds are provided in tables 1 & 2 below as a proof of the efficacies of the novel class of compounds disclosed above.

TR-β = target: T2, TR-β (Homo sapiens, UniProt P10828); assay: In vitro TR-β activity (in-house protocol); assay type: cell-based; conditions: for fold induction at 0.001 µM: Conc. 1 nM; for fold induction at 0.001 µM / fold induction at 0.01 µM / fold induction at 0.1 µM / fold induction at 1 µM: read-out: TR-β Fold Induction w.r.t T3(100 nm); for fold induction at 0.01 µM: Conc. 10 nM; for fold induction at 0.1 µM: Conc. 100 nM; for fold induction at 1 µM: Conc. 1000 nM
T2 sequence (P10828 1-461): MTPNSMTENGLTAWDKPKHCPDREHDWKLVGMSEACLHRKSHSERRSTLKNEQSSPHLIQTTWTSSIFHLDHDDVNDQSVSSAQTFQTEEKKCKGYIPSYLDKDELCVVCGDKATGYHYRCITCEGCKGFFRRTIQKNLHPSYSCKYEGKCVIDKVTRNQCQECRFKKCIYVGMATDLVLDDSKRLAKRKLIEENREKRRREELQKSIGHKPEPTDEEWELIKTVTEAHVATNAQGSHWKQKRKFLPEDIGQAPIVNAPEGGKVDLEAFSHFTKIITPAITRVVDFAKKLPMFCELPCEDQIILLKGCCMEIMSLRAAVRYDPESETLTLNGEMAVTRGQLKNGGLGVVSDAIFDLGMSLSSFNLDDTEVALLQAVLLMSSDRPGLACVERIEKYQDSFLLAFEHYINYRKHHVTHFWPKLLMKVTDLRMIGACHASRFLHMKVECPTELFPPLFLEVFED
Experimental: as §1

SMILES: CC(C)c1cc(Oc2c(Cl)cc(N(CC(=O)O)CC(=O)O)cc2Cl)ccc1O [Example 31, {Carboxymethyl-[3,5-dichloro-4-(4-hydroxy-3-isopropyl-phenoxy)-phenyl]-amino}-acetic acid]
- TR-α Fold Induction w.r.t T3(100 nm) (TR-α; Conc. 1 nM): 8.17
- TR-α Fold Induction w.r.t T3(100 nm) (TR-α; Conc. 10 nM): 17.06
- TR-α Fold Induction w.r.t T3(100 nm) (TR-α; Conc. 100 nM): 50.99
- TR-α Fold Induction w.r.t T3(100 nm) (TR-α; Conc. 1000 nM): 46.21
- fold induction at 0.001 µM (TR-β): 12.1
- fold induction at 0.01 µM (TR-β): 27.8
- fold induction at 0.1 µM (TR-β): 64.3
- fold induction at 1 µM (TR-β): 75.2

SMILES: CC(C)c1cc(Oc2c(Cl)cc(N(CC(=O)O)C(=O)Oc3ccc(O)cc3)cc2Cl)ccc1O [Example 32, [[3,5-Dichloro-4-(4-hydroxy-3-isopropyl-phenoxy)-phenyl]-(4-hydroxy-phenoxycarbonyl)-amino]-acetic acid]
- TR-α Fold Induction w.r.t T3(100 nm) (TR-α; Conc. 1 nM): 23.36
- TR-α Fold Induction w.r.t T3(100 nm) (TR-α; Conc. 10 nM): 74.20
- TR-α Fold Induction w.r.t T3(100 nm) (TR-α; Conc. 100 nM): 87.50
- TR-α Fold Induction w.r.t T3(100 nm) (TR-α; Conc. 1000 nM): 72.37
- fold induction at 0.001 µM (TR-β): 24.7
- fold induction at 0.01 µM (TR-β): 73.7
- fold induction at 0.1 µM (TR-β): 119
- fold induction at 1 µM (TR-β): 94.9

SMILES: O=C(O)CN(CC(=O)O)c1cc(Cl)c(Oc2ccc(O)c(S(=O)(=O)N3CCCCC3)c2)c(Cl)c1 [Example 33, (Carboxymethyl-{3,5-dichloro-4-[4-hydroxy-3-(piperidine-1-sulfonyl)-phenoxy]-phenyl}-amino)-acetic acid]
- TR-α Fold Induction w.r.t T3(100 nm) (TR-α; Conc. 1 nM): 9.66
- TR-α Fold Induction w.r.t T3(100 nm) (TR-α; Conc. 10 nM): 13.90
- TR-α Fold Induction w.r.t T3(100 nm) (TR-α; Conc. 100 nM): 25.46
- TR-α Fold Induction w.r.t T3(100 nm) (TR-α; Conc. 1000 nM): 46.33
- fold induction at 0.001 µM (TR-β): 8.63
- fold induction at 0.01 µM (TR-β): 11.9
- fold induction at 0.1 µM (TR-β): 26
- fold induction at 1 µM (TR-β): 46.8

SMILES: CC(C)(C)c1cc(Oc2c(Cl)cc(N(CC(=O)O)CC(=O)O)cc2Cl)ccc1O [Example 34, {[4-(3-tert-Butyl-4-hydroxy-phenoxy)-3,5-dichloro-phenyl]-carboxymethyl-amino}-acetic acid]
- TR-α Fold Induction w.r.t T3(100 nm) (TR-α; Conc. 1 nM): 12.66
- TR-α Fold Induction w.r.t T3(100 nm) (TR-α; Conc. 10 nM): 26.23
- TR-α Fold Induction w.r.t T3(100 nm) (TR-α; Conc. 100 nM): 62.95
- TR-α Fold Induction w.r.t T3(100 nm) (TR-α; Conc. 1000 nM): 53.76
- fold induction at 0.001 µM (TR-β): 8.37
- fold induction at 0.01 µM (TR-β): 21.3
- fold induction at 0.1 µM (TR-β): 51.1
- fold induction at 1 µM (TR-β): 55.7

SMILES: CC(C)(C)c1cc(Oc2c(Cl)cc(N(CC(=O)O)C(=O)Oc3ccc(O)cc3)cc2Cl)ccc1O [Example 35, [[4-(3-tert-Butyl-4-hydroxy-phenoxy)-3,5-dichloro-phenyl]-(4-hydroxy-phenoxycarbonyl)-amino]-acetic acid]
- TR-α Fold Induction w.r.t T3(100 nm) (TR-α; Conc. 1 nM): 25.40
- TR-α Fold Induction w.r.t T3(100 nm) (TR-α; Conc. 10 nM): 106.00
- TR-α Fold Induction w.r.t T3(100 nm) (TR-α; Conc. 100 nM): 130.68
- TR-α Fold Induction w.r.t T3(100 nm) (TR-α; Conc. 1000 nM): 72.06
- fold induction at 0.001 µM (TR-β): 22.4
- fold induction at 0.01 µM (TR-β): 80.5
- fold induction at 0.1 µM (TR-β): 125
- fold induction at 1 µM (TR-β): 81.3

SMILES: Cc1cc(N(CC(=O)O)CC(=O)O)cc(C)c1Oc1ccc(O)c(C(C)C)c1 [Example 37, {Carboxymethyl-[4-(4-hydroxy-3-isopropyl-phenoxy)-3,5-dimethyl-phenyl]-amino}-acetic acid]
- TR-α Fold Induction w.r.t T3(100 nm) (TR-α; Conc. 1 nM): 14.93
- TR-α Fold Induction w.r.t T3(100 nm) (TR-α; Conc. 10 nM): 40.84
- TR-α Fold Induction w.r.t T3(100 nm) (TR-α; Conc. 100 nM): 71.78
- TR-α Fold Induction w.r.t T3(100 nm) (TR-α; Conc. 1000 nM): 63.71
- fold induction at 0.001 µM (TR-β): 21.2
- fold induction at 0.01 µM (TR-β): 66.7
- fold induction at 0.1 µM (TR-β): 125
- fold induction at 1 µM (TR-β): 95.6

SMILES: CN(C)S(=O)(=O)c1cc(Oc2c(Cl)cc(N(CC(=O)O)C(=O)Oc3ccc(O)cc3)cc2Cl)ccc1O [Example 38, [[3,5-Dichloro-4-(3-dimethylsulfamoyl-4-hydroxy-phenoxy)-phenyl]-(4-hydroxy-phenoxycarbonyl)-amino]-acetic acid]
- TR-α Fold Induction w.r.t T3(100 nm) (TR-α; Conc. 1 nM): 09.36
- TR-α Fold Induction w.r.t T3(100 nm) (TR-α; Conc. 10 nM): 13.61
- TR-α Fold Induction w.r.t T3(100 nm) (TR-α; Conc. 100 nM): 25.32
- TR-α Fold Induction w.r.t T3(100 nm) (TR-α; Conc. 1000 nM): 41.59
- fold induction at 0.001 µM (TR-β): 12.3
- fold induction at 0.01 µM (TR-β): 16.9
- fold induction at 0.1 µM (TR-β): 43.5
- fold induction at 1 µM (TR-β): 81.4

SMILES: O=C(O)CN(C(=O)Oc1ccc(O)cc1)c1cc(Cl)c(Oc2ccc(O)c(S(=O)(=O)N3CCCCC3)c2)c(Cl)c1 [Example 41, [{3,5-Dichloro-4-[4-hydroxy-3-(piperidine-1-sulfonyl)-phenoxy]-phenyl}-(4-hydroxy-phenoxycarbonyl)-amino]-acetic acid]
- TR-α Fold Induction w.r.t T3(100 nm) (TR-α; Conc. 1 nM): 20.78
- TR-α Fold Induction w.r.t T3(100 nm) (TR-α; Conc. 10 nM): 56.19
- TR-α Fold Induction w.r.t T3(100 nm) (TR-α; Conc. 100 nM): 99.00
- TR-α Fold Induction w.r.t T3(100 nm) (TR-α; Conc. 1000 nM): 78.50
- fold induction at 0.001 µM (TR-β): 23.3
- fold induction at 0.01 µM (TR-β): 73.5
- fold induction at 0.1 µM (TR-β): 90
- fold induction at 1 µM (TR-β): 67

SMILES: Cc1cc(N(CC(=O)O)C(=O)Oc2ccc(O)cc2)cc(C)c1Oc1ccc(O)c(C(C)C)c1 [Example 42, [[4-(4-Hydroxy-3-isopropyl-phenoxy)-3,5-dimethyl-phenyl]-(4-hydroxy-phenoxycarbonyl)-amino]-acetic acid]
- TR-α Fold Induction w.r.t T3(100 nm) (TR-α; Conc. 1 nM): 11.05
- TR-α Fold Induction w.r.t T3(100 nm) (TR-α; Conc. 10 nM): 26.63
- TR-α Fold Induction w.r.t T3(100 nm) (TR-α; Conc. 100 nM): 72.96
- TR-α Fold Induction w.r.t T3(100 nm) (TR-α; Conc. 1000 nM): 80.89
- fold induction at 0.001 µM (TR-β): 12.9
- fold induction at 0.01 µM (TR-β): 41.4
- fold induction at 0.1 µM (TR-β): 91.9
- fold induction at 1 µM (TR-β): 86

SMILES: O=C(O)CN(C(=O)Oc1ccc(O)cc1)c1cc(Cl)c(Oc2ccc(O)c(C(=O)c3ccc(Cl)cc3)c2)c(Cl)c1 [Example 44, [{3,5-Dichloro-4-[3-(4-chloro-benzoyl)-4-hydroxy-phenoxy]-phenyl}-(4-hydroxy-phenoxycarbonyl)-amino]-acetic acid]
- EC50 (TR-α): 84.8 nM
- EC50 (TR-β): 14.8 nM

SMILES: CC(C)NS(=O)(=O)c1cc(Oc2c(Cl)cc(N(CC(=O)O)C(=O)Oc3ccc(O)cc3)cc2Cl)ccc1O [Example 45, [[3,5-Dichloro-4-(4-hydroxy-3-isopropylsulfamoyl-phenoxy)-phenyl]-(4-hydroxy-phenoxycarbonyl)-amino]-acetic acid]
- TR-α Fold Induction w.r.t T3(100 nm) (TR-α; Conc. 1 nM): 10.48
- TR-α Fold Induction w.r.t T3(100 nm) (TR-α; Conc. 10 nM): 12.02
- TR-α Fold Induction w.r.t T3(100 nm) (TR-α; Conc. 100 nM): 23.05
- TR-α Fold Induction w.r.t T3(100 nm) (TR-α; Conc. 1000 nM): 50.62
- fold induction at 0.001 µM (TR-β): 13.5
- fold induction at 0.01 µM (TR-β): 18.7
- fold induction at 0.1 µM (TR-β): 47.1
- fold induction at 1 µM (TR-β): 88.9

SMILES: O=C(O)CN(C(=O)Oc1ccc(O)cc1)c1cc(Cl)c(Oc2ccc(O)c(C(=O)c3cccc(Cl)c3)c2)c(Cl)c1 [Example 47, [{3,5-Dichloro-4-[3-(3-chloro-benzoyl)-4-hydroxy-phenoxy]-phenyl}-(4-hydroxy-phenoxycarbonyl)-amino]-acetic acid]
- EC50 (TR-α): 16.4 nM
- EC50 (TR-β): 11.3 nM

SMILES: CCc1cc(Oc2c(Cl)cc(N(CC(=O)O)C(=O)Oc3ccc(O)cc3)cc2Cl)ccc1O [Example 48, [[3,5-Dichloro-4-(3-ethyl-4-hydroxy-phenoxy)-phenyl]-(4-hydroxy-phenoxycarbonyl)-amino]-acetic acid]
- TR-α Fold Induction w.r.t T3(100 nm) (TR-α; Conc. 1 nM): 08.16
- TR-α Fold Induction w.r.t T3(100 nm) (TR-α; Conc. 10 nM): 17.51
- TR-α Fold Induction w.r.t T3(100 nm) (TR-α; Conc. 100 nM): 34.61
- TR-α Fold Induction w.r.t T3(100 nm) (TR-α; Conc. 1000 nM): 45.08
- fold induction at 0.001 µM (TR-β): 9.02
- fold induction at 0.01 µM (TR-β): 19.4
- fold induction at 0.1 µM (TR-β): 47.7
- fold induction at 1 µM (TR-β): 37.6
